Laboratory results reported in patent US20220287949A1, “SAFE PARTICLES FOR THE INTRODUCTION OF USEFUL CHEMICAL AGENTS IN THE BODY WITH CONTROLLED ACTIVATION” (priority 2019, published 2022).
Converted amounts (≈) assume the structure as drawn. Read-outs that look alike come from different tables or passages of the source.

Tests used:
[1] = test system: NIH 3T3 murine fibroblasts; experiment: Cytotoxicity of particle components (MTS assay); format: cell-based; settings: dye solution in ethanol, NIH 3T3, 24 hours, 37° C.
Experimental: Dye components were each dissolved in ethanol (molecular grade ethanol from Fisher Scientific) to produce a stock solution at 1 mM (B141, M071, and Epolight™ 1117) or 100 μM (C161). For each stock solution, additional dilutions were made at 2×, 4×, 8×, 16×, 32×, 64×, and 128×, and each concentration was tested for cytotoxicity against NIH 3T3 murine fibroblasts in a cytotoxicity test. NIH-3T3 cells were plated in a 96-well culture plate at a density of 10,000 cells per well and allowed to adhere to the surface overnight. Different concentrations of the dye solution were added to the NIH 3T3 cells and incubated for 24 hours at 37° C., in a 5% CO2 incubator. Controls for the cytotoxicity experiment included “live” and “dead” (cells were killed due to osmotic pressure by adding D.I. water). “Live” cells had nothing except cell culture media containing 10% FBS added to them and were used to obtain the 100% viability data. The “dead” control was used to obtain the 0% viability data point. After 24 hours, cells were washed twice with 1× PBS containing calcium and magnesium and 100 μL of media was added at the end. To a final volume of 100 μL of media in the wells, 20 μL of PMS activated MTS reagent was added and incubated for 90 minutes. At the end of the 90 minutes, absorbance was measured at 490 nm using a plate reader (Spectramax M2e, Molecular Devices). Viability of cells was calculated using the absorbance measured for the “live” (100%) and “dead” (0%) controls and the results of % viability estimated from the absorbance for the different concentrations of the dyes were plotted in MS Excel using linear regression curve fitting algorithm to obtain the IC30. All the samples were tested in triplicate and results were averaged over the three repeats.

[2] = Laser triggered changing of color of tattoo particles in gelatin; settings: for Abs: M071 at 458 nm, IR at 1064 nm
Experimental: Procedure: A solution of gelatin was prepared by adding Knox gelatin (1.0 g) to cold water (12.5 g) in a 100 mL glass jar equipped with a magnetic stir bar. The gelatin was stirred 15-30 minutes and then hot water was added (70° C.) until the total weight was 50.0 g. This gelatin was then used in 2.0 gm aliquots. Colorant loaded PMMA-BMA B-805 copolymer particles with 25% VTMS shells as prepared in Example lb above (20-30 mg) were then added to the gelatin solution (2.0 g) and vortexed in a 4 dram vial. The suspension of the tattoo particles in gelatin was then sonicated for 15-30 minutes before transferring to a 5 cm plastic culture dish. The gelatin suspension was spread evenly and allowed to set. It was then covered and stored at 6° C. until used.
Laser exposure was accomplished as follows: The cover for the culture dish was removed and a 5 cm clear plastic cover was cut and fit over the gelatin to prevent splatter. The top surface was then completely irradiated at 1064 nm with a 5 mm spot using fluences ranging from 2.46 J/cm^2 to 5.09 J/cm^2 using a Nd-YAG Q-switched Lutronic laser (Lutronic Spectra™ VRM II Laser with four distinct Q-switched mode wavelengths: 1064 nm, 532 nm, 585 nm, 650 nm, nano second pulse width, and spectra peak energy: 60 MW, 120 MW and 240 MW).
After irradiating the top surface, the culture dish was covered with its lid, turned over and irradiated from the opposite side to reach any unexposed particles visible only from the bottom side.
Following the complete irradiation, the plastic cover was removed and any adhered gelatin was transferred to a 10 ml centrifuge tube. The gelatin from the culture dish was also removed and transferred to the centrifuge tube with the aid of about 5 ml of water. The culture tube was rinsed with water and any suspended gelatin transferred by pipette to the centrifuge tube. The material in the tube was sonicated until the gelatin was redissolved (20-30 minutes, about 40° C.).
The sample was centrifuged for 20 minutes and the supernatant was removed. The recovered particles were slurried again with water, centrifuged, and the wash water removed. The resultant particles were dried in vacuum at room temperature and analyzed spectroscopically for the presence of dyes as in 2b above.
The standard fluence for removal of tattoo color in designs using these particles is 3.51 J/cm^2. 5.09 J/cm^2 is the maximum fluence on the Lutronic laser using a 5 mm spot. The laser triggered color changing tests were performed on 2 μm 5:1 Y197 (12.5% Y197:6.25% IR 1117), 2 μm 7:1 M071 (6.25% M071, 8.0 wt. % IR 1117), 2 μm 5:1 PBS (2.56 wt. % B141, 0.77 wt. % C161, 0.39 wt. % M071, 1.28 wt. % Y184, 8.0 wt. % IR1117), 2 μm 5:1 Y184 (12.5 wt. % Y184, 8.0 wt. % IR 1117) particles in the entries 21-24 of Table 3 above.(the numeric ratio is weight ratio of PMMA-BMA B-805 copolymer to colorant in the particle)

[3] = Surfactant-based extractable test (dye leaching into 1% SDS); format: physicochemical
Experimental: Dried particles (50 mg) were added to 3 mL of 1% sodium dodecyl sulfate to form a dispersion. The dispersion was sonicated for approximately 1 hour. The dispersion was centrifuged, and the supernatant component was withdrawn and filtered through a […] syringe filter. The absorbance spectrum of the filtrate was measured from 400-1300 nm using Shimadzu UV-3600 UV/VIS/NIR Spectrophotometer in a 1 cm cell.
The amount of the dye leached is calculated as in 2b above by applying Beer's law (Eq. 1) to give leachate concentrations. Leaching reduction is defined as the percentage of dye leached from coated particles when compared to uncoated particles of the same structure.
Portions of these particles were coated with several different shell thicknesses as described in Example lb above and tested for effectiveness in preventing dye leaching following the surfactant-based extractable test described in section Example 3b. […]

[4] = cited from earlier work
[5] = cited from earlier work; remark: listed apart in the source
[6] = 2 μm 5% PB5 particles, 25% VTMS shell, fluence 0 J/cm^2 (no laser)
[7] = 2 μm 5% PB5 particles, 1064 nm laser, fluence 3.51 J/cm^2
[8] = 2 μm 5% PB5 particles, 1064 nm laser, fluence 4.28 J/cm^2
[9] = 2 μm 5% PB5 particles, 1064 nm laser, fluence 5.09 J/cm^2
[10] = 2 μm 7:1 M071 particles, 25% VTMS shell, fluence 0 J/cm^2 (no laser)
[11] = 2 μm 7:1 M071 particles, 1064 nm laser, fluence 2.46 J/cm^2
[12] = 2 μm 7:1 M071 particles, 1064 nm laser, fluence 3.03 J/cm^2
[13] = 2 μm 7:1 M071 particles, 1064 nm laser, fluence 3.51 J/cm^2
[14] = 2 μm 7:1 M071 particles, 1064 nm laser, fluence 4.28 J/cm^2
[15] = 2 μm 7:1 M071 particles, 1064 nm laser, fluence 5.09 J/cm^2
[16] = Table 7B: 0.5 μm 2:1 PB4 particles with a 25% VTMS shell vs uncoated

Compound: 3,6-bis(2,3-dihydro-1H-indol-1-yl)-9-[2-[[[(1,1-dimethylethoxy)carbonyl]methylamino]sulfonyl]phenyl]-xanthylium [C161]
- IC30 (70% viability) [1]: 14.65 μM^a
- IC30 (70% viability) ([1]; listed as Cyan dye): about 14 μM

Compound: 3,6-bis[(2-chlorophenyl)methylamino]-9-[2-[[[(1,1-dimethylethoxy)carbonyl]methylamino]sulfonyl]phenyl]-xanthylium [M071]
- IC30 (70% viability) [1]: 63.23 μM^a
- IC30 (70% viability) ([1]; listed as Magenta): about 61 μM
- % Reduction [2, 6]: 0%
- Abs [2, 6]: 0.023
- % Reduction [2, 7]: 30%
- Abs [2, 7]: 0.016
- % Reduction [2, 8]: 30%
- Abs [2, 8]: 0.016
- % Reduction [2, 9]: 30%
- Abs [2, 9]: 0.016
- % Reduction [2, 10]: 0%
- Abs [2, 10]: 0.207
- % Reduction [2, 11]: 23%
- Abs [2, 11]: 0.159
- % Reduction [2, 12]: 30%
- Abs [2, 12]: 0.146
- % Reduction [2, 13]: 34%
- Abs [2, 13]: 0.137
- % Reduction [2, 14]: 47%
- Abs [2, 14]: 0.109
- % Reduction [2, 15]: 43%
- Abs [2, 15]: 0.119
- fluence at which the dye decay levels off ([2]; 1064 nm laser, particles in gelatin): 4.28 J/cm^2
- decay (reduction) after laser irradiation ([2]; M071 particles, 1064 nm laser, fluences 2.46 to 5.09 J/cm^2): about 50%

Compound: 6-(dibutylamino)-9-[2-[[[(1,1-dimethylethoxy)carbonyl](methylsulfonyl)amino]methyl]phenyl]-3-methyl-2-(phenylamino)-xanthylium [B141]
- IC30 (70% viability) [1]: 61.22 μM^a
- IC30 (70% viability) ([1]; listed as Black): about 61 μM

Compound: 9-[2-[[[(1,1-dimethylethoxy)carbonyl]methylamino]sulfonyl]phenyl]-3,6-diphenoxy-xanthylium [Y161]
- Leachate concentration ([3]; Table 7B: 0.5 μm 2:1 PB4 particles with a 25% VTMS shell): 1.2 µM
- Leaching reduced to [3, 16]: 1.4%
- Reduction Factor [3, 16]: 72.6
- Leachate concentration ([3]; Table 7B: 0.5 μm 2:1 PB4 particles, uncoated particle): 87.1 µM

Compound: NC(=O)CN(CC(=O)O)CC(=O)O [ADA, 2-[(2-amino-2-oxoethyl)-(carboxymethyl)amino]acetic acid]
- pKa at 20° C. [4]: 6.62

Compound: CC(C)(CO)NCCCCS(=O)(=O)O [AMPB]
- pKa at 20° C. [4]: 8.8

Compound: O=S(=O)(O)CCCNC1CCCCC1 [CAPS]
- pKa at 20° C. [4]: 10.4

Compound: C[N+](C)(C)CCN [Cholamine chloride]
- pKa at 20° C. [4]: 7.10
- Solubility in water at 0° C. ([5]; (as HCl)): 4200 mM

Compound: NCC(N)=O [Glycinamide]
- pKa at 20° C. [4]: 8.2
- Solubility in water at 0° C. ([5]; (as HCl)): 6400 mM (≈ 474 mg/mL)

Compound: O=S(=O)(O)CCCN1CCN(CCO)CC1 [HEPPS, 3-[4-(2-Hydroxyethyl)piperazin-1-yl]propane-1-sulfonic acid]
- pKa at 20° C. [4]: 8.1
- Solubility in water at 0° C. [5]: Large

Compound: O=S(=O)(O)CC(O)CN1CCN(CCO)CC1 (stereo not shown) [HEPPSO]
- Solubility in water at 0° C. [5]: 2200 mM (≈ 590 mg/mL)

Compound: O=S(=O)(O)CC(O)CN1CCOCC1 (stereo not shown) [MOPSO, 2-hydroxy-3-morpholin-4-ylpropane-1-sulfonic acid]
- Solubility in water at 0° C. [5]: 750 mM (≈ 169 mg/mL)

Compound: O=S(=O)(O)CCN1CCN(CCS(=O)(=O)O)CC1 [PIPES, piperazine-N,N′-bis(2-ethanesulfonic acid)]
- pKa at 20° C. [4]: 6.82

Compound: O=S(=O)(O)CC(O)CNC(CO)(CO)CO (stereo not shown) [TAPSO, 3-[[1,3-dihydroxy-2-(hydroxymethyl)propan-2-yl]amino]-2-hydroxypropane-1-sulfonic acid]
- Solubility in water at 0° C. [5]: 1000 mM (≈ 259 mg/mL)

Compound: O=S(=O)(O)CCCNC(CO)(CO)CO [TAPS]
- Solubility in water at 0° C. [5]: Large
